Reference: patent publication US20120245154A1, “SUBSTITUTED AMINOTHIAZINE DERIVATIVE” (SHIONOGI & CO., LTD., priority 2009, published 2012)

Assays:
Recombinant human BACE1 = target: T1, Recombinant human BACE1 (Homo sapiens, UniProt P56817); experiment: Assay of BACE1 inhibiting activity; format: biochemical; settings: Recombinant human BACE1 7.4 nM, substrate peptide 18 nM, pH 5.0, 30° C., 3 hours; read-out: IC50 (50% inhibitory concentration against the enzymatic activity)
T1 construct: purchased R&D Systems
T1 sequence (P56817 46-501): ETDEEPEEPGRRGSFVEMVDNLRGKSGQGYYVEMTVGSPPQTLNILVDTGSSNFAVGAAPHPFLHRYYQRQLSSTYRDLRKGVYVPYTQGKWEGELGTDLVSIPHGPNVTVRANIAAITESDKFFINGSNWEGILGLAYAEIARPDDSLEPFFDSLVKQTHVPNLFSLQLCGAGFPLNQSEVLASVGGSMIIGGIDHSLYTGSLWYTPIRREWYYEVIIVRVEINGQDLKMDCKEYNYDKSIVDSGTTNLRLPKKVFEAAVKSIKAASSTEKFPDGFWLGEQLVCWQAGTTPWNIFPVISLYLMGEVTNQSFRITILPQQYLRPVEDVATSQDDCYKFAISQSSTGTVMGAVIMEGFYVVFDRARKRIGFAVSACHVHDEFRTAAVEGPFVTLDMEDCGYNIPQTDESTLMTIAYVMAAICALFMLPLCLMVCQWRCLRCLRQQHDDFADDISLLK
Description: 48.5 μL of substrate peptide solution (Biotin-XSEVNLDAEFRHDSGC-Eu: X=ε-amino-n-capronic acid, Eu=Europium cryptate) was added to each well of 96-hole half-area plate (a black plate: Corning Incorporated), and after addition of 0.5 μl of the test compound (dissolved in […]) and 1 μl of Recombinant human BACE1(R&D Systems), the reaction mixture was incubated at 30° C. for 3 hours. The substrate peptide was synthesized by reacting Cryptate TBPCOOH mono SMP (CIS bio international) with Biotin-XSEVNLDAEFRHDSGC (Peptide Institute, Inc.). […]
After the incubation for reaction, 50 μl of 8.0 μg/ml Streptavidin-XL665(CIS bio international) dissolved in phosphate buffer (150 mM K2HPO4—KH2PO4, pH 7.0, 0.008% Triton X-100, 0.8 M KF) was added to each well and left stand at 30° C. for an hour. After then, fluorescence intensity was measured (excitation wavelength: 320 nm, measuring wavelength: 620 nm and 665 nm) using Wallac 1420 multilabel counter (Perkin Elmer life sciences). Enzymatic activity was determined from counting ratio of each wavelength (10,000×Count 665/Count 620) and 50% inhibitory concentration against the enzymatic activity was calculated.

[1] = test system: Neuroblastoma SH-SY5Y cells (SH/APPwt) with human wild-type β-APP excessively expressed; experiment: Measurement of β-amyloid (Aβ) production inhibitory effect in cell; format: cell-based; settings: 24 hours, Aβ 1-40 in culture supernatant by HTRF, read-out: IC50 (amount needed to inhibit Aβ production by 50%)
Description: Neuroblastoma SH-SY5Y cells (SH/APPwt) with human wild-type β-APP excessively expressed therein were prepared at 8×10^5 cells/mL, and 150 μl portions thereof were inoculated into respective wells of a 96-well culture plate (Falcon). The cells were cultured for 2 hours at 37° C. in a 5% gaseous carbon dioxide incubator. Then, a solution which had been preliminarily prepared by adding and suspending the test compound (DMSO (dimethyl sulfoxide) solution) so as to be 2 μl/50 μl medium was added to the cell sap. Namely, the final DMSO concentration was 1%, and the amount of the cell culture was 200 μl. After the incubation was performed for 24 hours from the addition of the test compound, 100 μl of the culture supernatant was collected from each fraction. The amount of the Aβ in each fraction was measured.
The Aβ amount was measured as follows. 10 μl of a homogeneous time resolved fluorescence (HTRF) measurement reagent (Amyloid-β 1-40 peptide; IBA Molecular Holding, S.A.) and 10 μl of the culture supernatant were put into a 384-well half area microplate (black microplate, Costar) and mixed with each other, and then left standing overnight at 4° C. while the light was shielded. Then, the fluorescence intensity (excitation wavelength: 337 nm, measurement wavelength: 620 nm and 665 nm) was measured with a Wallac 1420 multilabel counter (Perkin Elmer life sciences). […]

Solubility test = format: physicochemical; settings: JP-I medium, pH 1.2, simulated gastric fluid, kinetic from dmso stock, from turbidity after 4 hours, read-out: solubility assessed by 3 stages
Description: A 2-fold dilution series (12 points) of a 10 mM solution of a test compound in DMSO was added to a medium (JP-I, JP-II) (2%), and solubility was assessed by 3 stages (High; >40 μM, Medium; 3-40 μM, Low; <3 μM) from a turbidity after 4 hours (crystallization information).
The preparation method of solution was as follows: A 10 mM solution of the compound was prepared with DMSO, and 6 μL of the compound solution was added to 594 μL of an artificial intestinal juice (water and 118 mL of 0.2 mol/L NaOH reagent were added to 250 mL of 0.2 mol/L potassium dihydrogen phosphate reagent to reach 1000 mL) with a pH of 6.8. The mixture was left standing for 16 hours at 25° C., and the mixture was vacuum-filtered. The filtrate was two-fold diluted with methanol/water=1/1.

CYP3A4 [2] = target: T2, CYP3A4 (Homo sapiens, UniProt P08684); experiment: CYP3A4 fluorescent MBI test; format: in vitro ADME; parameters: host or cells: Escherichia coli; settings: CYP3A4 expressed in Escherichia coli, substrate 7-BFC
T2 sequence (P08684 whole entry): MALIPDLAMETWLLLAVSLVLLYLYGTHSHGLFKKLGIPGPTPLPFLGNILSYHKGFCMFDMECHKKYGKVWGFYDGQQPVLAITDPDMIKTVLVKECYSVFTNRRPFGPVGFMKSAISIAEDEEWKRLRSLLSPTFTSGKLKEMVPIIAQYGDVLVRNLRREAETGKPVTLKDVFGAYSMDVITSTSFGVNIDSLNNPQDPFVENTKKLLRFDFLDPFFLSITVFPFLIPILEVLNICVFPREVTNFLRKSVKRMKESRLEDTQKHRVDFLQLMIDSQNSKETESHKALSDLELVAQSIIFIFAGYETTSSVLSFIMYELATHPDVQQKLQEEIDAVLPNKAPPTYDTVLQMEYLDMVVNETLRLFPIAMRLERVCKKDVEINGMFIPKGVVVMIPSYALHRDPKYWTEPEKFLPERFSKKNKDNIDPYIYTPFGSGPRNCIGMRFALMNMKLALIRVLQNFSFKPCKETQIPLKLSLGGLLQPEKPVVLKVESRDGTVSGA
Description: The CYP3A4 fluorescent MBI test is a test of investigating enhancement of CYP3A4 inhibition of a compound by a metabolism reaction, and the test was performed using, as CYP3A4 enzyme expressed in Escherichia coli and employing, as an index, a reaction in which 7-benzyloxytrifluoromethylchmarin (7-BFC) is debenzylated by the CYP3A4 enzyme to produce a metabolite, 7-hydroxytrifluoromethylchmarin (HFC) emitting fluorescent light.
The reaction conditions were as follows: substrate, 5.6 μmol/L 7-BFC; pre-reaction time, 0 or 30 minutes; reaction time, 15 minutes; reaction temperature, 25° C. […]
An enzyme in a K-Pi buffer (pH 7.4) and a test drug solution as a pre-reaction solution were added to a 96-well plate at the composition of the pre-reaction, a part of it was transferred to another 96-well plate so that it was 1/10 diluted by a substrate in a K-Pi buffer, NADPH as a co-factor was added to initiate a reaction as an index (without preincubation) and, after a predetermined time of a reaction, acetonitrile/0.5 mol/L Tris (trishydroxyaminomethane)=4/1 was added to stop the reaction. […] For the plate on which each index reaction had been performed, a fluorescent value of 7-HFC which is a metabolite was measured with a fluorescent plate reader. […]

CYP2C9 = target: T3, CYP2C9 (Homo sapiens, UniProt P11712); experiment: CYP inhibition test (tolbutamide methyl-hydroxylation); format: in vitro ADME; settings: pooled human hepatic microsome
T3 construct: enzyme, pooled human hepatic microsome 0.2 mg protein/mL; from tissue; host or cells: pooled human hepatic microsomes
T3 sequence (P11712 whole entry): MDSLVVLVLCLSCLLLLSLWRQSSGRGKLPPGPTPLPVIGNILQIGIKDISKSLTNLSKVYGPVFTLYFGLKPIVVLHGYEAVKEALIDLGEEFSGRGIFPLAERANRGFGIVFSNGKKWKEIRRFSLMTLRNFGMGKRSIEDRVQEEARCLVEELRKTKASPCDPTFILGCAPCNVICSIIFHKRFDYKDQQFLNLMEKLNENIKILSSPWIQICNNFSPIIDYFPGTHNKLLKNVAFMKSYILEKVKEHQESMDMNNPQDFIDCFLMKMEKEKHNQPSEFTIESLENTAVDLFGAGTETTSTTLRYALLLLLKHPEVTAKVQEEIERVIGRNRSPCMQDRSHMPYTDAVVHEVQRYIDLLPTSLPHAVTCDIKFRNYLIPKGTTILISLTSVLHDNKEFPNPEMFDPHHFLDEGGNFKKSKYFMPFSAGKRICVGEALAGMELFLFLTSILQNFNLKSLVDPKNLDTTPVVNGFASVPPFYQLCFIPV
Description: (§1) Using commercially available pooled human hepatic microsome, and employing, as markers, 7-ethoxyresorufin O-deethylation (CYP1A2), tolbutamide methyl-hydroxylation (CYP2C9), mephenyloin 4′-hydroxylation (CYP2C19), dextromethorphan O-demethylation (CYP2D6), and terfenedine hydroxylation (CYP3A4) as typical substrate metabolism reactions of human main five CYP enzyme forms (CYP1A2, 2C9, 2C19, 2D6, 3A4), an inhibitory degree of each metabolite production amount by a test compound was assessed. […]
(§2) Each five kinds of substrates, human hepatic microsome, or a test drug in 50 mM Hepes buffer as a reaction solution was added to a 96-well plate at the composition as described above, NADPH, as a cofactor was added to initiate metabolism reactions as markers and, after the incubation at 37° C. for 15 minutes, a methanol/acetonitrile=1/1 (v/v) solution was added to stop the reaction. After the centrifugation at 3000 rpm for 15 minutes, resorufin (CYP1A2 metabolite) in the supernatant was quantified by a fluorescent multilabel counter and tributamide hydroxide (CYP2CP metabolite), mephenyloin 4′ hydroxide (CYP2C19 metabolite), […], and terfenadine alcohol (CYP3A4 metabolite) were quantified by LC/MS/MS. […]

CYP3A4 [3] = target: T2, CYP3A4; experiment: CYP inhibition test (terfenedine hydroxylation); format: in vitro ADME; parameters: enzyme, pooled human hepatic microsome 0.2 mg protein/mL; from tissue; host or cells: pooled human hepatic microsomes; settings: pooled human hepatic microsome, 1 μmol/L terfenedine
Description: as §1, §2

CYP1A2 = target: T4, CYP1A2 (Homo sapiens, UniProt P05177); experiment: CYP inhibition test (7-ethoxyresorufin O-deethylation); format: in vitro ADME; settings: pooled human hepatic microsome, 0.5 μmol/L ethoxyresorufin
T4 construct: enzyme, pooled human hepatic microsome 0.2 mg protein/mL; from tissue; host or cells: pooled human hepatic microsomes
T4 sequence (P05177 1-516): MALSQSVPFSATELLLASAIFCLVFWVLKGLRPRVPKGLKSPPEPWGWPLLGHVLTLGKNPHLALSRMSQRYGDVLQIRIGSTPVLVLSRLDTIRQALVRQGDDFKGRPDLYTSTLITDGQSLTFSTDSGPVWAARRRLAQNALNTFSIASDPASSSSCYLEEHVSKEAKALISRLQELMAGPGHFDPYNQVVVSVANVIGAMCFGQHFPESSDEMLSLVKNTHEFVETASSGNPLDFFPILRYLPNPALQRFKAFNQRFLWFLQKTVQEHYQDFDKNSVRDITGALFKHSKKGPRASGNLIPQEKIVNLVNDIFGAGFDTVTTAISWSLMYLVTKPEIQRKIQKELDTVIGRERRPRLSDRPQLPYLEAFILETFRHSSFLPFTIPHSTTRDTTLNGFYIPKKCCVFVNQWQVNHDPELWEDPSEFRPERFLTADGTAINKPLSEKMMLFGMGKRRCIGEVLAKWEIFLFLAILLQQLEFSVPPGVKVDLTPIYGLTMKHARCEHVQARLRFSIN
Description: as §1, §2

CYP2C19 = target: T5, CYP2C19 (Homo sapiens, UniProt P33261); experiment: CYP inhibition test (mephenyloin 4′-hydroxylation); format: in vitro ADME; settings: pooled human hepatic microsome, 50 μmol/L S-mephenitoin
T5 construct: enzyme, pooled human hepatic microsome 0.2 mg protein/mL; from tissue; host or cells: pooled human hepatic microsomes
T5 sequence (P33261 whole entry): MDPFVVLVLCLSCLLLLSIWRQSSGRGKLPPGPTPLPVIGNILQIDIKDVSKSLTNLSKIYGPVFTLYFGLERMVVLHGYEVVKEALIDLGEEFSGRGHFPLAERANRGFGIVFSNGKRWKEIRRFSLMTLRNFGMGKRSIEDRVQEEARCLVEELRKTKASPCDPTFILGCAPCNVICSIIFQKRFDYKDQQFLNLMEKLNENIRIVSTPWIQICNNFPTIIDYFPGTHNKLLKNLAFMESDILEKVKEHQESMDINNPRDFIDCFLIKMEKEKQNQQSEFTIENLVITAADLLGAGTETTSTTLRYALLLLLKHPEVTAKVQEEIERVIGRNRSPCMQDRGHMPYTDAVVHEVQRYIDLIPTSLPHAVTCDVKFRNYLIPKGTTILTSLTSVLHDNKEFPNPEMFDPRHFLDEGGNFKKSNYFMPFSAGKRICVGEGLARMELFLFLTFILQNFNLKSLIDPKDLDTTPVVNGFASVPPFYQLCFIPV
Description: as §1, §2

CYP2D6 = target: T6, CYP2D6 (Homo sapiens, UniProt P10635); experiment: CYP inhibition test (dextromethorphan O-demethylation); format: in vitro ADME; settings: pooled human hepatic microsome, 5 μmol/L dextromethorphan
T6 construct: enzyme, pooled human hepatic microsome 0.2 mg protein/mL; from tissue; host or cells: pooled human hepatic microsomes
T6 sequence (P10635 whole entry): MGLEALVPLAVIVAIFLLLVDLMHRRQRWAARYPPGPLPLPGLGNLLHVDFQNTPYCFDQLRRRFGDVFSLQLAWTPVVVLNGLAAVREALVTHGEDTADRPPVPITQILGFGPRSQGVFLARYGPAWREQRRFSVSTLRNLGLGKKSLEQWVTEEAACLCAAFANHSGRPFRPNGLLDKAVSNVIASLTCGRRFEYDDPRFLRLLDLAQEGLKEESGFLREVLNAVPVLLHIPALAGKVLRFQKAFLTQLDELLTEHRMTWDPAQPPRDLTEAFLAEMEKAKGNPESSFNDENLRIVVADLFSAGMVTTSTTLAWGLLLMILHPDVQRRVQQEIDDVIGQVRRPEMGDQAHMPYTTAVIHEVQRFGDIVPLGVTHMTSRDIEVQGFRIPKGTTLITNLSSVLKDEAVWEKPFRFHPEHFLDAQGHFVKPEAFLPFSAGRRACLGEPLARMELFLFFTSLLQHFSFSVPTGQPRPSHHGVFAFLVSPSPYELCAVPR
Description: as §1, §2

[4] = Metabolism stability test; format: in vitro ADME; settings: human liver microsomes 0.5 mg protein/mL, 1 mmol/L NADPH, 37° C., 30 minutes
Description: Using a commercially available pooled human hepatic microsomes, a test compound was reacted for a constant time, a remaining rate was calculated by comparing a reacted sample and an unreacted sample, thereby, a degree of metabolism in liver was assessed.
A reaction was performed (oxidative reaction) at 37° C. for 0 minute or 30 minutes in the presence of 1 mmol/L NADPH in 0.2 mL of a buffer (50 mmol/L Tris-HCl pH 7.4, 150 mmol/L potassium chloride, 10 mmol/L magnesium chloride) containing 0.5 mg protein/mL of human liver microsomes. After the reaction, 50 μL of the reaction solution was added to 100 μL of a methanol/acetonitrile=1/1 (v/v), mixed and centrifuged at 3000 rpm for 15 minutes. The test compound in the supernatant was quantified by LC/MS/MS, and a remaining amount of the test compound after the reaction was calculated, letting a compound amount at 0 minute reaction time to be 100%.

Compound: CCC1=C[C@@](C)(c2cc(NC(=O)c3ccc(C#N)cn3)ccc2F)N=C(N)S1 [Compound I-8]
- IC50 (Recombinant human BACE1): 0.012 µM
- IC50 [1]: 0.002 µM

Compound: C[C@@]1(c2cc(NC(=O)c3ccc(C#N)cn3)ccc2F)C=C(CO)SC(N)=N1 [Compound I-6]
- solubility at 4 h (Solubility test): > 40 µM

Compound: C[C@@]1(c2cc(NC(=O)c3ccc(C#N)cn3)ccc2F)C=C(c2ccccn2)SC(N)=N1 [Compound I-20]
- CYP3A4 MBI: difference between IC50 values (pre-reaction time 0 or 30 minutes) (CYP3A4 [2]): (−) (when the difference is 3 μM or less, this was defined as (−))

Compound: COCCNC(=O)C1=C[C@@](C)(c2cc(NC(=O)c3ccc(C#N)cn3)ccc2F)N=C(N)S1 [Compound I-2]
- IC50 (CYP2C9): > 21 µM
- IC50 (CYP3A4 [3]): > 21 µM
- IC50 (CYP1A2): > 21 µM
- IC50 (CYP2C19): > 21 µM
- IC50 (CYP2D6): > 21 µM

Compound: COc1cnc(C(=O)Nc2ccc(F)c([C@]3(C)C=C(C(C)(C)O)SC(N)=N3)c2)cn1 [Compound I-19]
- remaining amount of the test compound after the reaction [4]: 96.4%
